For the assay, the system named is breast cancer patients. Description: Pathological complete remission (pCR) in breast cancer patients treated neoadjuvantly with ixabepilone, split by DRP prediction score (GSE41998). Type of assay: in vivo, human. The conditions noted are these: pre-treatment biopsy. The method, then:
An mRNA-based predictor of responsiveness to ixabepilone was developed according to the methods of the invention and applied to gene expression data prepared using clinical samples from breast cancer patients, which was downloaded from Gene Expression Omnibus under accession number GSE41998 (FIG. 1). The samples were diagnostic biopsies analyzed with Affymetrix GeneChips. All the genes listed in Table 2 were measured from clinical samples on the Affymetrix GeneChip and their mean expression subtracted from the mean of all the genes in Table 1. The difference (e.g., a difference score) was then compared to a difference score produced using measured levels of the sensitivity and resistance biomarkers of Tables 1 and 2 from a reference population consisting of 279 breast cancer patients participating in a clinical trial having two treatment arms ((1) ixabepilone and (2) paclitaxel treatment), producing a percentile score on a scale from 0 to 100. As part of the clinical trial, biopsy samples from breast cancer patients later treated neoadjuvantly with ixabepilone were collected prior to treatment. Patients' responses to ixabepilone were subsequently compared to predicted ixabepilone sensitivity using the methods disclosed herein. Patients with pathological complete remission (pCR) were predicted using the disclosed methods to be more sensitive to ixabepilone than patients with no pCR (No_pCR; FIG. 1).

SMILES strings stand for the structures.

Consider `C/C(=C\c1csc(C)n1)[C@@H]1C[C@@H]2O[C@]2(C)CCC[C@H](C)[C@H](O)[C@@H](C)C(=O)C(C)(C)[C@@H](O)CC(=O)N1` [ixabepilone, (1S,3S,7S,10R,11S,12S,16R)-7,11 dihydroxy-8,8,10,12,16-pentamethyl-3-[(1E)-1-methyl-2-(2-methyl-4-thiazolyl)ethenyl] 17-oxa-4-azabicyclo[14.1.0] heptadecane-5,9-dione], for which, where the note is “DRP negative (<=50)”, the “Non responders (no pCR), number of patients” value is 52 and the “Responders (pCR), number of patients” value is reported as 8. Also, for the setting “DRP positive (>50)”, the “Non responders (no pCR), number of patients” value is 45 and the “Responders (pCR), number of patients” value is given as 27.

(Values after patent US20230062248A1, “METHODS FOR PREDICTING IXABEPILONE RESPONSIVENESS IN CANCER PATIENTS” (Allarity Therapeutics Europe ApS, priority 2020, published 2023).)
